Measurements published in PubChem BioAssay (NCI).
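GI50 = concentration required for 50% inhibition of growth. TGI is the concentration that stops growth completely.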

Key:
Assay in all cases: inhibition of tumour cell growth, NCI panel, 384-well format
[1] = tested on: PC-3 prostate
[2] = tested on: CAKI-1 renal
[3] = tested on: RPMI-8226 leukemia
[4] = tested on: BT-549 breast
[5] = tested on: SF-295 CNS
[6] = tested on: RXF 393 renal
[7] = tested on: SF-268 CNS
[8] = tested on: OVCAR-8 ovarian
[9] = tested on: UO-31 renal
[10] = tested on: HCC-2998 colon
[11] = tested on: SK-MEL-28 melanoma
[12] = tested on: SW-620 colon
[13] = tested on: HOP-92 NSCLC
[14] = tested on: SF-539 CNS
[15] = tested on: ACHN renal
[16] = tested on: MALME-3M melanoma
[17] = tested on: HT29 colon
[18] = tested on: MCF7 breast
[19] = tested on: A498 renal
[20] = tested on: NCI-H460 NSCLC
[21] = tested on: MDA-MB-231 breast
[22] = tested on: SR leukemia
[23] = tested on: HL-60(TB) leukemia
[24] = tested on: KM12 colon
[25] = tested on: A549 NSCLC
[26] = tested on: HS 578T breast
[27] = tested on: UACC-257 melanoma
[28] = tested on: HCT-15 colon
[29] = tested on: M14 melanoma
[30] = tested on: MDA-MB-468 breast
[31] = tested on: NCI-H322M lung
[32] = tested on: IGROV1 ovarian
[33] = tested on: T-47D breast
[34] = tested on: EKVX NSCLC
[35] = tested on: UACC-62 melanoma
[36] = tested on: NCI-H23 lung
[37] = tested on: NCI-H522 lung
[38] = tested on: OVCAR-5 ovarian
[39] = tested on: MDA-MB-435 melanoma
[40] = tested on: OVCAR-4 ovarian
[41] = tested on: DU-145 prostate
[42] = tested on: LOX IMVI melanoma
[43] = tested on: COLO 205 colon
[44] = tested on: 786-0 renal
[45] = tested on: SNB-19 CNS
[46] = tested on: MOLT-4 leukemia
[47] = tested on: OVCAR-3 ovarian
[48] = tested on: U251 glioblastoma
[49] = tested on: NCI/ADR-RES ovarian
[50] = tested on: SK-OV-3 ovarian
[51] = tested on: TK-10 renal
[52] = tested on: SK-MEL-5 melanoma
[53] = tested on: HCT-116 colon
[54] = tested on: SNB-75 CNS
[55] = tested on: NCI-H226 lung
[56] = tested on: SN12C renal
[57] = tested on: HOP-62 NSCLC
[58] = tested on: K-562 leukemia
[59] = tested on: SK-MEL-2 melanoma

Cc1ccc(C(=O)Nc2ccc(CN3CCN(C)CC3)c(C(F)(F)F)c2)cc1C#Cc1cnc2cccnn12 showed a GI50 [1] of 872 nM, a TGI [1] of 2070 nM and a GI50 [2] of 210 nM. It also gave a TGI [2] of 504 nM, a GI50 [3] of 288 nM and a TGI [3] of 760 nM. The GI50 [4] was 309 nM, the TGI [4] was 1000 nM and the GI50 [5] was 1080 nM. It also gave a TGI [5] of 2270 nM, a GI50 [6] of 284 nM and a TGI [6] of 621 nM. For the same compound, the GI50 [7] was 222 nM, the TGI [7] was 844 nM and the GI50 [8] was 344 nM. The TGI [8] was 1220 nM, the GI50 [9] was 392 nM and the TGI [9] was 1150 nM. For the same compound, the GI50 [10] was 500 nM, the TGI [10] was 1290 nM and the GI50 [11] was 362 nM. The TGI [11] was 1270 nM, the GI50 [12] was 399 nM and the TGI [12] was 1480 nM. It also gave a GI50 [13] of 249 nM, a TGI [13] of 580 nM and a GI50 [14] of 109 nM. The TGI [14] was 245 nM, the GI50 [15] was 210 nM and the TGI [15] was 685 nM. The GI50 [16] was 104 nM, the TGI [16] was 226 nM and the GI50 [17] was 221 nM. The TGI [17] was 607 nM, the GI50 [18] was 560 nM and the TGI [18] was 1830 nM. The GI50 [19] was 390 nM, the TGI [19] was 1310 nM and the GI50 [20] was 396 nM. The TGI [20] was 1510 nM, the GI50 [21] was 171 nM and the TGI [21] was 399 nM. For the same compound, the GI50 [22] was 521 nM, the TGI [22] was 801 nM and the GI50 [23] was 163 nM. For the same compound, the TGI [23] was 320 nM, the GI50 [24] was 46 nM and the TGI [24] was 1380 nM. It also gave a GI50 [25] of 361 nM, a TGI [25] of 1250 nM and a GI50 [26] of 107 nM. It also gave a TGI [26] of 290 nM, a GI50 [27] of 222 nM and a TGI [27] of 419 nM. It also gave a GI50 [28] of 265 nM, a TGI [28] of 1020 nM and a GI50 [29] of 167 nM. The TGI [29] was 573 nM, the GI50 [30] was 563 nM and the TGI [30] was 1580 nM. The GI50 [31] was 275 nM, the TGI [31] was 692 nM and the GI50 [32] was 180 nM. It also gave a TGI [32] of 558 nM, a GI50 [33] of 608 nM and a TGI [33] of 1810 nM. The GI50 [34] was 574 nM, the TGI [34] was 1780 nM and the GI50 [35] was 144 nM. The TGI [35] was 745 nM, the GI50 [36] was 246 nM and the TGI [36] was 797 nM. The GI50 [37] was 147 nM, the TGI [37] was 582 nM and the GI50 [38] was 516 nM. It also gave a TGI [38] of 1680 nM, a GI50 [39] of 425 nM and a TGI [39] of 1340 nM. The GI50 [40] was 538 nM, the TGI [40] was 1820 nM and the GI50 [41] was 345 nM. For the same compound, the TGI [41] was 1190 nM, the GI50 [42] was 153 nM and the TGI [42] was 307 nM. For the same compound, the GI50 [43] was 348 nM, the TGI [43] was 1440 nM and the GI50 [44] was 339 nM. It also gave a TGI [44] of 1060 nM, a GI50 [45] of 1270 nM and a TGI [45] of 2560 nM. The GI50 [46] was 203 nM, the TGI [46] was 619 nM and the GI50 [47] was 374 nM. It also gave a TGI [47] of 1370 nM, a GI50 [48] of 492 nM and a TGI [48] of 1610 nM. The GI50 [49] was 315 nM, the TGI [49] was 1000 nM and the GI50 [50] was 297 nM. It also gave a TGI [50] of 1210 nM, a GI50 [51] of 737 nM and a TGI [51] of 1970 nM. For the same compound, the GI50 [52] was 170 nM, the TGI [52] was 373 nM and the GI50 [53] was 193 nM. It also gave a TGI [53] of 541 nM, a GI50 [54] of 217 nM and a TGI [54] of 790 nM. It also gave a GI50 [55] of 47.6 nM, a TGI [55] of 240 nM and a GI50 [56] of 324 nM. The TGI [56] was 1100 nM, the GI50 [57] was 403 nM and the TGI [57] was 1380 nM.
In the case of Cc1ccc(C(=O)Nc2cccc(C(F)(F)F)c2)cc1Nc1nc(-c2cccnc2)nc2c1cnn2C, the GI50 [1] is reported as 1820 nM, the TGI [1] is reported as 4550 nM and the GI50 [2] is reported as 972 nM. The TGI [2] was 2150 nM, the GI50 [4] was 1670 nM and the TGI [4] was 3660 nM. The GI50 [5] was 1720 nM, the TGI [5] was 3150 nM and the GI50 [6] was 137 nM. For the same compound, the TGI [6] was 1110 nM, the GI50 [7] was 1700 nM and the TGI [7] was 4210 nM. For the same compound, the GI50 [8] was 1880 nM, the TGI [8] was 4790 nM and the GI50 [9] was 605 nM. The TGI [9] was 2090 nM, the GI50 [11] was 319 nM and the TGI [11] was 1840 nM. For the same compound, the GI50 [12] was 955 nM, the TGI [12] was 2260 nM and the GI50 [13] was 1580 nM. The TGI [13] was 5850 nM, the GI50 [14] was 677 nM and the TGI [14] was 2060 nM. For the same compound, the GI50 [15] was 1030 nM, the TGI [15] was 2510 nM and the GI50 [16] was 222 nM. The TGI [16] was 757 nM, the GI50 [17] was 341 nM and the TGI [17] was 1330 nM. It also gave a GI50 [18] of 1310 nM, a TGI [18] of 2620 nM and a GI50 [19] of 1210 nM. The TGI [19] was 2950 nM, the GI50 [20] was 383 nM and the TGI [20] was 1750 nM. The GI50 [21] was 181 nM, the TGI [21] was 3870 nM and the GI50 [22] was 390 nM. It also gave a TGI [22] of 1320 nM, a GI50 [23] of 80.6 nM and a TGI [23] of 1280 nM. For the same compound, the GI50 [24] was 1490 nM, the TGI [24] was 2980 nM and the GI50 [25] was 1380 nM. For the same compound, the TGI [25] was 2960 nM, the GI50 [26] was 1060 nM and the TGI [26] was 2310 nM. The GI50 [27] was 378 nM, the TGI [27] was 1890 nM and the GI50 [28] was 882 nM. The TGI [28] was 2160 nM, the GI50 [58] was 12.2 nM and the TGI [58] was 29 nM. It also gave a GI50 [29] of 291 nM, a TGI [29] of 1410 nM and a GI50 [30] of 1080 nM. For the same compound, the TGI [30] was 2310 nM, the GI50 [31] was 2060 nM and the TGI [31] was 4890 nM. The GI50 [32] was 782 nM, the TGI [32] was 2600 nM and the GI50 [33] was 1290 nM. For the same compound, the TGI [33] was 2700 nM, the GI50 [34] was 1150 nM and the TGI [34] was 3080 nM. For the same compound, the GI50 [35] was 309 nM, the TGI [35] was 1510 nM and the GI50 [36] was 248 nM. For the same compound, the TGI [36] was 1900 nM, the GI50 [37] was 1380 nM and the TGI [37] was 2720 nM. It also gave a GI50 [38] of 1410 nM, a TGI [38] of 8450 nM and a GI50 [39] of 487 nM. For the same compound, the TGI [39] was 2390 nM, the GI50 [40] was 1590 nM and the TGI [40] was 4050 nM. For the same compound, the GI50 [59] was 240 nM, the TGI [59] was 959 nM and the GI50 [41] was 1710 nM. The TGI [41] was 4340 nM, the GI50 [43] was 522 nM and the TGI [43] was 2220 nM. It also gave a GI50 [44] of 1120 nM, a TGI [44] of 2410 nM and a GI50 [45] of 3540 nM. For the same compound, the TGI [45] was 13300 nM, the GI50 [46] was 593 nM and the TGI [46] was 1890 nM. For the same compound, the GI50 [47] was 1490 nM, the TGI [47] was 3210 nM and the GI50 [48] was 1630 nM. The TGI [48] was 3240 nM, the GI50 [50] was 1880 nM and the TGI [50] was 3940 nM. The GI50 [51] was 1370 nM, the TGI [51] was 3130 nM and the GI50 [52] was 466 nM. The TGI [52] was 1820 nM, the GI50 [53] was 372 nM and the TGI [53] was 1880 nM. It also gave a GI50 [54] of 1960 nM, a TGI [54] of 4280 nM and a GI50 [55] of 774 nM. The TGI [55] was 2120 nM, the GI50 [56] was 2150 nM and the TGI [56] was 10300 nM. For the same compound, the GI50 [57] was 1410 nM and the TGI [57] was 3270 nM.
